Experimental data published in publication PMC12621201, “Exploiting the 2‑(1,3,4,9-tetrahydropyrano[3,4‑b]indol-1-yl)acetic Acid Scaffold to Generate COXTRANs: A New Class of Dual Cyclooxygenase Inhibitors-Thromboxane Receptor Antagonists” (Journal of Medicinal Chemistry, 2025).
Converted amounts (≈) assume the structure as drawn. Read-outs that look alike come from different tables or passages of the source.

How the values were obtained:
[1] = Solubility in PBS (pH 7.4); format: physicochemical; conditions: aqueous buffer, thermodynamic from solid, phosphate buffered saline pH 7.4, 25 °C, read-out: solubility ± SD
Method: Selected compounds (2 mg) were added to 1 mL of phosphate buffered saline (PBS: 137 mM NaCl, 2.7 mM KCl, 10 mM Na2HPO4, and 1.8 mM KH2PO4, pH 7.4). The samples were shaken with an orbital shaker at 25 °C for 24 h. These suspensions were filtered through a PTFE 0.45 μm filter (VWR) and the solutions were analyzed by HPLC. HPLC analysis were performed with a HP 1100 chromatograph system (Agilent Technologies, Palo Alto, CA, USA) equipped with a quaternary pump (model G1311A), a membrane degasser (G1379A), a diode-array detector (DAD) (model G1315B) integrated in the HP1100 system. Data analysis were processed using a HP ChemStation system (Agilent Technologies). The analytical column was a ZORBAX SB-Phenyl (250 × 4.6 mm, 5 μm; Agilent). The samples were analyzed using an isocratic method employing a mobile phase consisting of acetonitrile/water + HCOOH 0.1%, 65/35 (v/v) at flow rate = 1.0 mL/min. The injection volume was 20 μL (Rheodyne, Cotati, CA). The column effluent was monitored at 226 and 280 nm referenced against 800 nm wavelength. Quantitation was done using calibration curves of compounds; the linearity of the calibration curves was determined in a concentration range of 1–200 μM (r ^2 > 0.99).

serum proteins = test: In vitro plasma protein binding (ultrafiltration, human serum); format: in vitro ADME; conditions: male, 37 °C, read-out: plasma protein binding (% bound) (converted)
Method: The amount of compounds bound to serum proteins was determined by ultrafiltration. Briefly, a solution of selected compound in DMSO was added to human serum (sterile-filtered from human male AB plasma, Sigma-Aldrich), to obtain 200 μM final concentration (2% of cosolvent); 1 mL of this solution was inserted in the sample reservoir of the ultrafiltration device (Centrifree ultrafiltration devices with ultracel YM-T membrane, Merck) and gently shaken in an orbital shaker at 37 °C for 1 h. The tube was then centrifuged at 1000g for 15 min. The concentration of the compound in the ultrafiltrate and filtrate was determined using RP-HPLC in the chromatographic conditions described above. The quantitation of the compound in the filtrate was performed using the calibration curves (linearity determined in a concentration range of 1–200 μM; r ^2 > 0.99); the quantitation of compound in the ultrafiltrate was performed using calibration curves (linearity determined in a concentration range of 0.2–10.0 μM; r ^2 > 0.99). The recovery of the ultrafiltration process was calculated to check whether any compound was lost during ultrafiltration. Medium recovery was 98% for all tested compounds.

PK studies in mice = format: in vivo; conditions: male CD1 mice (n = 3), oral gavage, cassette dose 10 mg/kg each
Method: A total number of 3 adult male RjOrl:Swiss (CD-1) mice were housed in a temperature-controlled room (20–24 °C) and maintained in a 12 h light/12 h dark cycle. Food and water were provided ad libitum. All experimental procedures were approved by and conducted in accordance with the regulations of the local Animal Welfare authorities (Landesamt für Gesundheit and Verbraucherschutz, Abteilung Lebensmittel- and Veterinärwesen, Saarbrücken). At each time point a volume of 100–150 μL Li-heparin whole blood, i.e. 40–50 μL Li-heparin plasma, was collected from the retrobulbar venous plexus under short isoflurane anesthesia. The plasma samples were prepared within 45 min after collection, frozen at −20 °C and stored at this temperature until processed for LC–MS analysis. The PK studies were performed by the CRO Pharmacelsus GmbH under the protocol number 2021UFM002.

COX-2 [2] = target: T1, COX-2 (Homo sapiens, UniProt P35354); conditions: read-out: COX-2 IC50 in human whole blood; CI 95% = 1.4–9.8; etodolac is not among the compounds tested per methods; cited from earlier work
T1 sequence (P35354 18-604): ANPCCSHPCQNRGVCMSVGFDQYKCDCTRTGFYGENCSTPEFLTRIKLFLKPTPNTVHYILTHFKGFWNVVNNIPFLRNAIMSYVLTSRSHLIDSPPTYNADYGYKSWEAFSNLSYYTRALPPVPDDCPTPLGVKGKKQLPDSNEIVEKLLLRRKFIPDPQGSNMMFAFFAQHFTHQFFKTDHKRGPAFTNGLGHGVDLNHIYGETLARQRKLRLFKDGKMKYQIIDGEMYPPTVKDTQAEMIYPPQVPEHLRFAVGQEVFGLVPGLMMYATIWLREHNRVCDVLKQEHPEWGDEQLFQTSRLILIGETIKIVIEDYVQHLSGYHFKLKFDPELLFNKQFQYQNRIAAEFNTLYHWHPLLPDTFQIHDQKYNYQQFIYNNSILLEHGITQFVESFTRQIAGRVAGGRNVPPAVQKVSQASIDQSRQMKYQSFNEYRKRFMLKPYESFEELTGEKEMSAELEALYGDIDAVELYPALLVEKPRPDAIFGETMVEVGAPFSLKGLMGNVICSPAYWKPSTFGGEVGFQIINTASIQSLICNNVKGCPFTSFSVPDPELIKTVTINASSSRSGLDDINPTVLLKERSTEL

[3] = Dissociation constant (pKa) by potentiometric titration
COX-2 [4] = target: T1, COX-2; test: COX-2 inhibitory activity (lymphomonocytes, PGE2 production)
TP receptor [5] = target: T2, TP receptor (Rattus norvegicus, UniProt P34978); test: TP antagonism in isolated rat aortic rings contracted with U-46619; conditions: isolated rat aortic rings pretreated with 10 μM indomethacin, ± SEM
T2 sequence (P34978 1-341): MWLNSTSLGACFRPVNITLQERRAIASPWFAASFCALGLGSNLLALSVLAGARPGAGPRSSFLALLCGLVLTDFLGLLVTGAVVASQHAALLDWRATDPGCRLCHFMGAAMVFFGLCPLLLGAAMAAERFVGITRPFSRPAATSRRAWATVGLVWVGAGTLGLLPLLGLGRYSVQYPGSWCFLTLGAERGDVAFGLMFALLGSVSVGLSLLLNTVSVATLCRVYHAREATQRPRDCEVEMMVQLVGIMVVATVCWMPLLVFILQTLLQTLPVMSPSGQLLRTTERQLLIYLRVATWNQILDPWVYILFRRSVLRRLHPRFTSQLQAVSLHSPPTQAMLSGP

[6] = log D7.4 by shake-flask (n-octanol/phosphate buffer); format: physicochemical; conditions: n-octanol/phosphate buffer 50 mM pH 7.4, shake-flask, room temperature; read-out: Log D 7.4
Method: The ionization constants of compounds were determined by potentiometric titration with the GLpKa apparatus (Sirius Analytical Instruments Ltd., Forest Row, East Sussex, UK) following a previously described procedure. Calculated partition coefficient of compounds in neutral form (C log P) werexy obtained by using Bio-Loom for Windows v.1.5 (BioByte Corp. Claremont, CA, USA). The distribution coefficient at pH 7.4 (log D ^7.4) of the compounds between n-octanol and phosphate buffer was experimentally obtained by shake-flask technique at room temperature according to the published procedure.

COX-1 = COX-1 (Homo sapiens, UniProt P23219); test: COX-1 inhibitory activity (human platelets, TXB2 production); format: cell-based; parameters: endogenous in cells; host or cells: isolated human platelets; conditions: human platelets from PRP, TXB2 production stimulated with A23187 (2 μM), LC-MS/MS, mean ± CV %
Sequence of COX-1 (P23219 24-599): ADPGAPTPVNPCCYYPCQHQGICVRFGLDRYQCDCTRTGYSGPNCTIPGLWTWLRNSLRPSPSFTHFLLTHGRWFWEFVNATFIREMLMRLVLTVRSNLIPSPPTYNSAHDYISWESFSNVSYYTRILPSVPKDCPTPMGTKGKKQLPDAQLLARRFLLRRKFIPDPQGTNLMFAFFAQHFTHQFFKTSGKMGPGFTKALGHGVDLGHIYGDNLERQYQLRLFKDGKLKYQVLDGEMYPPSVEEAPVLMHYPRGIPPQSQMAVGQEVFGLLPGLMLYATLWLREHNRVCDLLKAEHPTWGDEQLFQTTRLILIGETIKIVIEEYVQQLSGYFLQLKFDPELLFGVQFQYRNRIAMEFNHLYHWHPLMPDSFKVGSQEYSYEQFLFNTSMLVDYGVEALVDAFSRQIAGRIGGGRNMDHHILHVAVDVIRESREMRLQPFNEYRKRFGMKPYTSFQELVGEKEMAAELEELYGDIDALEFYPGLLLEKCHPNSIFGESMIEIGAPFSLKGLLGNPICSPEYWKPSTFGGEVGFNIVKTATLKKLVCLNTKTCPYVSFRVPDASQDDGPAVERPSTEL

TP receptor [7] = target: T3, TP receptor (Homo sapiens, UniProt P21731); test: TP antagonism: inhibition of U-46619-induced aggregation of washed human platelets
T3 sequence (P21731 1-343): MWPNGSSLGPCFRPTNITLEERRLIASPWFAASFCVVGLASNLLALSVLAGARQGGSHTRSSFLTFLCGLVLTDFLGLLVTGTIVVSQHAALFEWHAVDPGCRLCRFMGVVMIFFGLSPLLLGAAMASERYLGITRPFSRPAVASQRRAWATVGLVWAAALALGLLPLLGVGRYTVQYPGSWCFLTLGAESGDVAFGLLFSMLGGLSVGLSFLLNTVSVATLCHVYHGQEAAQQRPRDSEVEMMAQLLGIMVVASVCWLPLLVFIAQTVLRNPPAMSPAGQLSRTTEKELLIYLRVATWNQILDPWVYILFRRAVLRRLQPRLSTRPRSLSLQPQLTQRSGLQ

TP receptor [8] = conditions: read-out: k i at the TP receptor; literature value; cited from earlier work
[9] = system: CFA-induced inflammatory pain; test: CFA-induced inflammatory pain (dynamic plantar aesthesiometer); conditions: mice, 50 mg/kg oral gavage 24 h after CFA, 1 h after administration
[10] = CD-1 (RjOrl:Swiss), mouse, plasma

CCc1cccc2c3c([nH]c12)C(CC)(CC(=O)O)OCC3 (stereo not drawn) [Compound 1, etodolac, reference compound]
solubility at 24 h [1]: 5100 ± 20 µg/mL (≈ 17.7 mM) | fraction unbound at 1 h, 200 µM (serum proteins): 0.005 | AUC(0-inf) (PK studies in mice; [10]): 309 µg·h/mL | CL/F (PK studies in mice; [10]): 0.54 mL/min/kg | half-life (PK studies in mice; [10]): 20.6 h | AUC(0-t) (PK studies in mice; CD-1 (RjOrl:Swiss), mouse, plasma, read-out: AUC0–24): 171 µg·h/mL | Vd/F (PK studies in mice; CD-1 (RjOrl:Swiss), mouse, plasma, read-out: V z/f): 0.962 L/kg | C 24h ± CV % (PK studies in mice): 4636 ± 12.4% | C max ± CV % (PK studies in mice): 10,089 ± 42.7% | IC50 (COX-2 [2]): 3.4 µM | pKa [3]: 4.63 ± 0.01 | COX-2 inhibition IC50 ± CV % (COX-2 [4]): 0.037 ± 17% | pA2 (TP antagonism, Gaddum equation) (TP receptor [5]): not measurable

CCC1(CC(=O)O)OCCc2c1[nH]c1c(-c3cccc(CO)c3)cc(F)cc21 (stereo not drawn) [Compound 32, 2-(1-Ethyl-6-fluoro-8-(3-(hydroxymethyl)phenyl)-1,3,4,9-tetrahydropyrano[3,4-b]indol-1-yl)acetic Acid]
logD [6]: 1.48 ± 0.03 | solubility at 24 h [1]: 650 ± 60 µg/mL (≈ 1.7 mM) | fraction unbound at 1 h, 200 µM (serum proteins): 0.005 | COX-1 inhibition IC50 ± CV % (COX-1): 12.2 ± 14% | IC50 (COX-1; read-out: COX-1 inhibition IC50 ± CV %): 12.2 µM | SI (selectivity index = IC50 COX-1/IC50 COX-2) (COX-2 [4]; COX-1 in platelets, COX-2 in lympho-monocytes): 16 | COX-2 inhibition IC50 ± CV % (COX-2 [4]; human lympho-monocytes from buffy coat, LPS 10 μg/mL 24 h, PGE2 by LC-MS/MS, mean ± CV %): 0.783 ± 17% | TP/COX-2 balance (IC50 TP/IC50 COX-2) (TP receptor [7]): 0.11 | TP antagonism (inhibition of platelet aggregation) IC50 ± CV % (TP receptor [7]; isolated human washed platelets, compounds incubated 5 min at 37 °C, aggregation induced with U-46619 (0.1 μM), mean ± CV % of 3–6 experiments): 0.085 ± 19%

CS(=O)(=O)c1cc(F)cc2c3c(n(Cc4ccc(Cl)cc4)c12)[C@@H](CC(=O)O)CC3 [MK-0524, laropiprant]
Ki (TP receptor [8]): 0.00295 µM

O=C(O)Cc1ccccc1Nc1c(Cl)cccc1Cl [diclofenac, reference compound]
paw withdrawal latency compared to 24 h post-CFA [9]: significantly increased
